≈ marks a conversion by molar mass, not a printed value. Where two headings read alike, the source gives them in different places.
Tests used:
[1] = blood levels upon intramuscular administration to mice; assay type: in vivo; conditions: mouse, im, 20 mg/kg
Protocol: (§1) Table 2, below, gives the Protective Dose50 (PD50) in mice for a number of the compounds of Formula I against selected microorganisms. Table 3 gives blood levels of various compounds of Formula I upon intramuscular administration of the test compounds to mice at a dosage of 20 mg/kg.

P. aeruginosa A9843A = assay: Protective Dose50 in mice, P. aeruginosa A9843A; assay type: in vivo; conditions: Pseudomonas aeruginosa, read-out: PD50, P. aeruginosa A9843A
Protocol: as §1

S. aureus Smith = assay: Protective Dose50 in mice, S. aureus Smith; assay type: in vivo; conditions: for ED50: Staphylococcus aureus, read-out: PD50, S. aureus Smith
Protocol: as §1

[2] = tested on: Cephalothinresistant E. coli (3 strains) and Kl. pneumoniae (2 strains); assay: MIC, two-fold serial agar dilution, group (G-)-Ib; assay type: cell-based; conditions: Escherichia coli, read-out: Geometric Mean of MIC, (G-)-Ib, Mueller-Hinton agar; 5 strains
Protocol: (§2) In the primary evaluation of the compounds of this invention, the Minimum Inhibitory Concentrations (MIC's) of the compounds were determined by the two-fold serial agar dilution method in Mueller-Hinton agar against 32 strains of test organisms in six groups.
(G-)Ib: Cephalothinresistant E. coli (3 strains) and Kl. pneumoniae (2

[3] = tested on: Ps. aeruginosa (7 strains); assay: MIC, two-fold serial agar dilution, group (G-)-III; assay type: cell-based; conditions: Pseudomonas aeruginosa, Mueller-Hinton agar, read-out: Geometric Mean of MIC, (G-)-III
Protocol: as §2
(G-)III: Ps. aeruginosa (7 strains)

[4] = tested on: Penicillinsensitive S. aureus (5 strains); assay: MIC, two-fold serial agar dilution, group (G+)-Ia; assay type: cell-based; conditions: Staphylococcus aureus, read-out: Geometric Mean of MIC, (G+)-Ia
Protocol: as §2
(G+)Ia: Penicillinsensitive S. aureus (5 strains)

[5] = tested on: M. morganii (1 strain), Ent. cloacae (2 strains) and Ser. marcescens (2 strains); assay: MIC, two-fold serial agar dilution, group (G-)-II; assay type: cell-based; conditions: Mueller-Hinton agar; 5 strains; read-out: Geometric Mean of MIC, (G-)-II
Protocol: as §2
(G-)II: M. morganii (1 strain), Ent. cloacae (2 strains) and Ser.

[6] = tested on: Penicillinresistant S. aureus (5 strains); assay: MIC, two-fold serial agar dilution, group (G+)-Ib; assay type: cell-based; conditions: Staphylococcus aureus, read-out: Geometric Mean of MIC, (G+)-Ib
Protocol: as §2
(G+)Ib: Penicillinresistant S. aureus (5 strains)

E. coli Juhl = assay: Protective Dose50 in mice, E. coli Juhl; assay type: in vivo; conditions: Escherichia coli, read-out: PD50, E. coli Juhl
Protocol: as §1

[7] = tested on: Cephalothinsensitive E. coli (2 strains), Kl. pneumoniae (1 strain) and Pr. mirabilis (2 strains); assay: MIC, two-fold serial agar dilution, group (G-)-Ia; assay type: cell-based; conditions: 5 strains
Protocol: as §2
(G+)Ia: Cephalothinsensitive E. coli (2 strains), Kl. pneumoniae (1
strain) and Pr. mirabilis (2 strains)

[8] = solubility of crystalline zwitterion in saline; assay type: physicochemical; conditions: crystalline zwitterion form
[9] = Mueller-Hinton agar, read-out: Geometric Mean of MIC, (G-)-Ia

SMILES	AUC [1]	Cmax [1]	half-life [1]	ED50 (P. aeruginosa A9843A)	PD50, S. aureus Smith (S. aureus Smith)	ED50 (S. aureus Smith)	MIC [2]	MIC [3]	MIC [4]	MIC [5]	MIC [6]	ED50 (E. coli Juhl)	MIC [7, 9]	MIC ([6]; Mueller-Hinton agar, 5 strains)	solubility in water (in words) [8]	solubility ([8]; in saline at 23° C.)	MIC ([4]; Mueller-Hinton agar, 5 strains)	MIC ([7]; read-out: Geometric Mean of MIC, (G-)-Ia, Mueller-Hinton agar)
CON=C(C(=O)NC1C(=O)N2C(C(=O)[O-])=C(C=CC[n+]3ccccc3)CSC12)c1nsc(N)n1 (stereo not drawn) [Compound I-1B, 7-[2-(5-Amino-1,2,4-thiadiazol-3-yl)-2-methoxyiminoacetamido]-3-[3-pyridinio-1-propen-1-yl]-3-cephem-4-carboxylate]	11000 ng·h/mL	17000 ng/mL	21 min	7.7 mg/kg	0.65 mg/kg	0.44 mg/kg	–	–	–	–	–	–	–	–	–	–	–	–
CON=C(C(=O)NC1C(=O)N2C(C(=O)[O-])=C(C=CC[n+]3ccc4sc(N)nc4c3)CS[C@H]12)c1nsc(N)n1 (stereo partly drawn) [Compound I-1C, 7-[2-(5-Amino-1,2,4-thiadiazol-3-yl)-2-methoxyiminoacetamido]-3-[3-(2-amino-5-thiazolo[4,5-c]pyridinio)-1-propen-1-yl]-3-cephem-4-carboxylate]	18000 ng·h/mL	21000 ng/mL	32 min	–	–	0.22 mg/kg	0.033 µg/mL (≈ 0.0575 µM)	3.8 µg/mL (≈ 6.62 µM)	0.1 µg/mL (≈ 0.174 µM)	0.087 µg/mL (≈ 0.152 µM)	0.2 µg/mL (≈ 0.349 µM)	0.013 mg/kg	0.0071 µg/mL (≈ 0.0124 µM)	–	–	–	–	–
CON=C(C(=O)NC1C(=O)N2C(C(=O)[O-])=C(/C=C/C[n+]3cccc(C(N)=O)c3)CSC12)c1nsc(N)n1 (stereo not drawn) [Compound I-1G, 7-[2-(5-Amino-1,2,4-thiadiazol-3-yl)-2-methoxyiminoacetamido]-3-[3-(3-carbamoylpyridinio)-1-propen-1-yl]-3-cephem-4-carboxylate]	–	–	–	5.92 mg/kg	–	0.96 mg/kg	0.033 µg/mL (≈ 0.0606 µM)	1.4 µg/mL (≈ 2.57 µM)	0.2 µg/mL (≈ 0.367 µM)	0.1 µg/mL (≈ 0.184 µM)	–	0.021 mg/kg	0.0094 µg/mL (≈ 0.0173 µM)	0.35 µg/mL (≈ 0.643 µM)	–	–	–	–
CON=C(C(=O)NC1C(=O)N2C(C(=O)[O-])=C(/C=C/C[n+]3ccc(C(N)=O)cc3)CSC12)c1nsc(N)n1 (stereo not drawn) [Compound I-1H, 7-[2-(5-Amino-1,2,4-thiadiazol-3-yl)-2-methoxyiminoacetamido]-3-[3-(4-carbamoylpyridinio)-1-propen-1-yl]-3-cephem-4-carboxylate]	14000 ng·h/mL	23000 ng/mL	16 min	3.9 mg/kg	–	0.39 mg/kg	0.043 µg/mL (≈ 0.079 µM)	0.97 µg/mL (≈ 1.78 µM)	0.2 µg/mL (≈ 0.367 µM)	0.1 µg/mL (≈ 0.184 µM)	–	0.015 mg/kg	0.013 µg/mL (≈ 0.0239 µM)	0.4 µg/mL (≈ 0.735 µM)	slightly soluble in water	6000 µg/mL (≈ 11000 µM)	–	–
CON=C(C(=O)NC1C(=O)N2C(C(=O)[O-])=C(/C=C/C[n+]3ccsc3C)CSC12)c1nsc(N)n1 (stereo not drawn) [Compound I-1J, 7-[2-(5-Amino-1,2,4-thiadiazol-3-yl)-2-methoxyiminoacetamido]-3-[3-(2-methylthiazolio)-1-propen-1-yl]-3-cephem-4-carboxylate]	9700 ng·h/mL	19000 ng/mL	16 min	–	–	0.35 mg/kg	0.076 µg/mL (≈ 0.146 µM)	1.6 µg/mL (≈ 3.07 µM)	–	0.15 µg/mL (≈ 0.288 µM)	–	0.029 mg/kg	0.025 µg/mL (≈ 0.0479 µM)	0.35 µg/mL (≈ 0.671 µM)	–	–	0.17 µg/mL (≈ 0.326 µM)	–
CON=C(C(=O)NC1C(=O)N2C(C(=O)[O-])=C(/C=C/C[n+]3cccc(CO)c3)CSC12)c1nsc(N)n1 (stereo not drawn) [Compound I-1K, 7-[2-(5-Amino-1,2,4-thiadiazol-3-yl)-2-methoxyiminoacetamido]-3-[3-(3-hydroxymethylpyridinio)-1-propenyl]-3-cephem-4-carboxylate]	14000 ng·h/mL	24000 ng/mL	14 min	–	–	0.53 mg/kg	0.044 µg/mL (≈ 0.0828 µM)	3.5 µg/mL (≈ 6.58 µM)	–	0.2 µg/mL (≈ 0.376 µM)	–	–	0.029 µg/mL (≈ 0.0546 µM)	0.8 µg/mL (≈ 1.5 µM)	–	–	0.35 µg/mL (≈ 0.658 µM)	–
CNC(=O)c1cc[n+](C/C=C/C2=C(C(=O)[O-])N3C(=O)C(NC(=O)/C(=N\OC)c4nsc(N)n4)C3SC2)cc1 (stereo not drawn) [Compound I-1M, 7-[2-(5-Amino-1,2,4-thiadiazol-3-yl)-2-(Z)-methoxyiminoacetamido]-3-[3-(4-N-methylcarbamoylpyridinio)-1-propenyl]-3-cephem-4-carboxylate]	14000 ng·h/mL	20000 ng/mL	23 min	–	–	0.96 mg/kg	0.1 µg/mL (≈ 0.179 µM)	2.3 µg/mL (≈ 4.12 µM)	–	0.17 µg/mL (≈ 0.304 µM)	–	–	0.029 µg/mL (≈ 0.0519 µM)	0.7 µg/mL (≈ 1.25 µM)	–	–	0.35 µg/mL (≈ 0.627 µM)	–
CON=C(C(=O)NC1C(=O)N2C(C(=O)[O-])=C(C=CC[n+]3ccc(C(=O)O)cc3)CSC12)c1nsc(N)n1 (stereo not drawn) [Compound I-1N, 7-[2-(5-Amino-1,2,4-thiadiazol-3-yl)-2-methoxyiminoacetamido]-3-[3-(4-carboxypyridinio)-1-propenyl]-3-cephem-4-carboxylate]	18000 ng·h/mL	24000 ng/mL	19 min	–	–	2 mg/kg	0.066 µg/mL (≈ 0.121 µM)	5.7 µg/mL (≈ 10.4 µM)	–	0.3 µg/mL (≈ 0.55 µM)	–	–	0.013 µg/mL (≈ 0.0238 µM)	1.6 µg/mL (≈ 2.93 µM)	–	–	1.2 µg/mL (≈ 2.2 µM)	–
CO/N=C(\C(=O)NC1C(=O)N2C(C(=O)[O-])=C(/C=C/C[n+]3cccc4c3CCC4)CSC12)c1nsc(N)n1 (stereo not drawn) [Compound I-1O, 7-[2-(5-Amino-1,2,4-thiadiazol-3-yl)-2-(Z)-methoxyiminoacetamido]-3-[3-(2,3-cyclopentenopyridinio)-1-propenyl]-3-cephem-4-carboxylate]	17000 ng·h/mL	28000 ng/mL	32 min	–	–	0.26 mg/kg	0.033 µg/mL (≈ 0.0609 µM)	14 µg/mL (≈ 25.8 µM)	–	0.11 µg/mL (≈ 0.203 µM)	–	0.17 mg/kg	0.029 µg/mL (≈ 0.0535 µM)	0.35 µg/mL (≈ 0.646 µM)	–	–	0.17 µg/mL (≈ 0.314 µM)	–
CCO/N=C(\C(=O)NC1C(=O)N2C(C(=O)[O-])=C(C=CC[n+]3ccc(C(=O)O)cc3)CSC12)c1nsc(N)n1 (stereo not drawn) [Compound I-2N, 7-[2-(5-Amino-1,2,4-thiadiazol-3-yl)-2-(Z)-ethoxyiminoacetamido]-3-[3-(4-carboxypyridinio)-1-propenyl]-3-cephem-4-carboxylate]	12000 ng·h/mL	22000 ng/mL	20 min	–	–	5 mg/kg	–	–	–	–	–	–	–	–	–	–	–	–
C=CCON=C(C(=O)NC1C(=O)N2C(C(=O)[O-])=C(/C=C/C[n+]3ccc(C(N)=O)cc3)CSC12)c1nsc(N)n1 (stereo not drawn) [Compound I-3H, 7-[2-(Amino-1,2,4-thiadiazol-3-yl)-2-(propen-3-yloxyimino)acetamido]-3-[3-(4-carbamoylpyridinio)-1-propenyl]-3-cephem-4-carboxylate]	25000 ng·h/mL	19000 ng/mL	47 min	–	–	–	0.1 µg/mL (≈ 0.175 µM)	1.9 µg/mL (≈ 3.33 µM)	–	0.52 µg/mL (≈ 0.911 µM)	–	–	0.057 µg/mL (≈ 0.0999 µM)	0.4 µg/mL (≈ 0.701 µM)	–	–	0.23 µg/mL (≈ 0.403 µM)	–
C#CCON=C(C(=O)NC1C(=O)N2C(C(=O)[O-])=C(/C=C/C[n+]3ccc(C(N)=O)cc3)CSC12)c1nsc(N)n1 (stereo not drawn) [Compound I-4H, 7-[2-(5-Amino-1,2,4-thiadiazol-3-yl)-2-propargyloxyiminoacetamido]-3-[3-(4-carbamoylpyridinio)-1-propenyl]-3-cephem-4-carboxylate]	16000 ng·h/mL	27000 ng/mL	22 min	–	–	–	0.11 µg/mL (≈ 0.193 µM)	2.6 µg/mL (≈ 4.57 µM)	–	0.6 µg/mL (≈ 1.06 µM)	–	–	0.066 µg/mL (≈ 0.116 µM)	0.46 µg/mL (≈ 0.809 µM)	–	–	0.26 µg/mL (≈ 0.457 µM)	–
NC(=O)c1cc[n+](C/C=C/C2=C(C(=O)[O-])N3C(=O)C(NC(=O)C(=NOC4CCCC4)c4nsc(N)n4)C3SC2)cc1 (stereo not drawn) [Compound I-5H, 7-[2-(5-Amino-1,2,4-thiadiazol-3-yl)-2-cyclopentyloxyiminoacetamido]-3-[3-(4-carbamoylpyridinio)-1-propenyl]-3-cephem-4-carboxylate]	18000 ng·h/mL	22000 ng/mL	32 min	–	–	–	0.46 µg/mL (≈ 0.768 µM)	4.2 µg/mL (≈ 7.02 µM)	–	2.1 µg/mL (≈ 3.51 µM)	–	–	0.2 µg/mL (≈ 0.334 µM)	0.4 µg/mL (≈ 0.668 µM)	–	–	0.13 µg/mL (≈ 0.217 µM)	–
CON=C(C(=O)NC1C(=O)N2C(C(=O)[O-])=C(C=CC[n+]3ccccc3)CSC12)c1nsc(N)n1 (stereo not drawn) [I-IB E/Z = 1/4, 7-[2-(5-Amino-1,2,4-thiadiazol-3-yl)-2-methoxyiminoacetamido]-3-[3-pyridinio-1-propen-1-yl]-3-cephem-4-carboxylate]	–	–	–	–	–	–	0.11 µg/mL (≈ 0.219 µM)	3.5 µg/mL (≈ 6.98 µM)	–	0.35 µg/mL (≈ 0.698 µM)	–	–	–	0.8 µg/mL (≈ 1.6 µM)	–	–	0.35 µg/mL (≈ 0.698 µM)	0.05 µg/mL (≈ 0.0997 µM)

Source: patent publication US4751295A, “Cephalosporin derivatives” (Bristol-Myers Company, priority 1986, dated 1988)
